Assay results reported in the Deep4Chem optical property database.
Values joined by “and” are separate entries in the source; they are usually repeats but may differ in a detail not shown here. Equal values may be shown once. One block for each compound: values may come before it.

Assay: solvent given as SMILES

Compound: CCn1c(-c2ccc(N(c3ccccc3)c3cccc4ccccc34)cc2)c(-c2ccc3ccccc3c2)c(-c2ccc3ccccc3c2)c1-c1ccc(N(c2ccccc2)c2cccc3ccccc23)cc1
absorption maximum (in CCOC(C)=O): 296 nm

Compound: CCc1c(C)c2n(c1C)[B-](F)(F)[N+]1=C(c3ccc[nH]3)c3ccccc3C1=C2
absorption maximum (in C1CCOC1): 613 nm
absorption maximum (in CC#N): 608 nm
absorption maximum (in CCCCCC): 614 nm
absorption maximum (in CO): 609 nm
absorption maximum (in Cc1ccccc1): 620 nm
absorption maximum (in ClCCl): 616 nm

Compound: CCCCC(CC)CN1C(=O)c2cccc3c(C#Cc4ccc(N(c5ccc(C#Cc6ccc7c8c(cccc68)C(=O)N(CC(CC)CCCC)C7=O)cc5)c5ccc(C#Cc6ccc7c8c(cccc68)C(=O)N(CC(CC)CCCC)C7=O)cc5)cc4)ccc(c23)C1=O (configuration not stated)
absorption maximum (in C1CCCCC1): 444 nm
absorption maximum (in C1CCOC1): 447 nm
absorption maximum (in CC#N): 454 nm
absorption maximum (in Cc1ccccc1): 446 nm
absorption maximum (in ClC(Cl)Cl): 453 nm

Compound: C(=C\c1ccc(-c2ccccc2)cc1)/c1ccc(Oc2ccc3ccccc3c2-c2c(Oc3ccc(/C=C/c4ccc(-c5ccccc5)cc4)cc3)ccc3ccccc23)cc1
absorption maximum (in ClCCl): 328 nm

Compound: Cc1cc(=O)[nH]c(=O)[nH]1
absorption maximum (in CC#N): 256 nm

Compound: Cc1cccc2nc3c(=O)[nH]c(=O)[nH]c3nc12
absorption maximum (in C1COCCO1): 379 nm
absorption maximum (in CC#N): 379 nm
absorption maximum (in CCO): 381 nm
absorption maximum (in CO): 382 nm
absorption maximum (in ClCCCl): 380 nm
absorption maximum (in O): 386 nm

Compound: COc1cc(OC)cc(C2=C3C(C)=C(I)C(/C=C/c4c[nH]c5ccccc45)=[N+]3[B-](F)(F)n3c(/C=C/c4c[nH]c5ccccc45)c(I)c(C)c32)c1
absorption maximum (in C1CCOC1): 715 nm
absorption maximum (in CS(C)=O): 727 nm
absorption maximum (in ClCCl): 702 nm

Compound: Cc1cccc2nc3[nH]c(=O)[nH]c(=O)c3nc12
absorption maximum (in CC#N): 380 nm

Compound: Cc1s[c+](N2CCOCC2)sc1-c1cc(I)cc(I)c1[O-]
absorption maximum (in C1CCOC1): 425 nm
absorption maximum (in CC#N): 409 nm
absorption maximum (in CO): 371 nm
absorption maximum (in ClCCl): 413 nm

Compound: CC1(C)OB(c2cc3ccc4cccc5ccc(c2)c3c45)OC1(C)C
absorption maximum (in Cc1ccccc1): 385 nm

Compound: Cc1cc2c(ccc3c[n+](C)c(C)cc32)c[n+]1C
absorption maximum (in CC#N): 400 nm

Compound: CCCCCCCCc1ccc(-c2c3cc(-c4cc(CCCCCCCC)c(-c5ccc(-c6sc(/C=C7\SC(=S)N(CC)C7=O)cc6CCCCCCCC)s5)s4)sc3c(-c3ccc(CCCCCCCC)s3)c3cc(-c4cc(CCCCCCCC)c(-c5ccc(-c6sc(/C=C7\SC(=S)N(CC)C7=O)cc6CCCCCCCC)s5)s4)sc23)s1
absorption maximum (in ClC(Cl)Cl): 509 nm

Compound: CC1(C)C(/C=C/C2=C(Cl)C(=C/C=C3/N(Cc4ccccc4)c4ccccc4C3(C)C)/CCC2)=[N+](Cc2ccccc2)c2ccccc21
absorption maximum (in CO): 784 nm

Compound: CCc1c(C(=O)OC)c(C(=O)OC)c2ccc(-c3ccccc3)nn12
absorption maximum (in C1CCCCC1): 399.4 nm

Compound: CON(OC)c1cc2c3cc(-c4c(C)cc(C)cc4C)cc4c5cc(-c6c(C)cc(C)cc6C)cc6c7cc(B(c8c(C)cc(C)cc8C)c8c(C)cc(C)cc8C)cc8c9cc(-c%10c(C)cc(C)cc%10C)cc%10c%11cc(-c%12c(C)cc(C)cc%12C)cc%12c(c1)c2c1c(c43)c(c65)c(c78)c(c9%10)c1c%11%12
absorption maximum (in C1CCOC1): 452 nm
absorption maximum (in CC(C)=O): 445 nm
absorption maximum (in CCCCCC): 453 nm
absorption maximum (in Cc1ccccc1): 461 nm
absorption maximum (in ClC(Cl)Cl): 449 nm
absorption maximum (in ClCCl): 450 nm

Compound: COc1ccc(/C=C/c2cc(/C=C/c3ccc(OC)cc3)nc(/C=C/c3ccc(C(F)(F)F)cc3)n2)cc1
absorption maximum (in ClCCl): 370 nm

Compound: CN(C)c1ccc2c(c1)C(C)(C)C(=O)C=C2
absorption maximum (in O): 413 nm

Compound: Cc1cc2nc3[nH]c(=O)[nH]c(=O)c3nc2cc1C
absorption maximum (in CC#N): 380 nm

Compound: Cn1cccc1-c1cc(C#N)ccc1C#N
absorption maximum (in C1CCOC1): 370 nm
absorption maximum (in CC#N): 359 nm
absorption maximum (in CCCCCC): 366 nm
absorption maximum (in CCCCOCCCC): 370 nm
absorption maximum (in CCOCC): 364 nm

Compound: CCCCCCCCCCCCn1c(-c2cc(-c3nc4ccc(C)cc4n3CCCCCCCCCCCC)cc(-c3nc4ccc(C)cc4n3CCCCCCCCCCCC)c2)nc2ccc(C)cc21
absorption maximum (in ClCCl): 306.5 nm

Compound: CC(C)[Si](C#Cc1c2nc3ccccc3nc2c(C#C[Si](C(C)C)(C(C)C)C(C)C)c2nc3c(ccc4ccccc43)nc12)(C(C)C)C(C)C
absorption maximum (in CCCCCC): 649 nm

Compound: COC(=O)c1ccc(/C=C2\N=C(c3ccc([N+](=O)[O-])cc3)NC2=O)cc1
absorption maximum (in C1COCCO1): 405 nm

Compound: S=P1(c2ccccc2)C(c2ccccc2)=Cc2cc3ccccc3cc21 (configuration not stated)
absorption maximum (in ClCCl): 387 nm

Compound: CCCCN(CCCC)c1ccc(C#Cc2cc(C#Cc3ccc(N(CCCC)CCCC)cc3)c(C#Cc3ccc([N+](=O)[O-])cc3)cc2C#Cc2ccc([N+](=O)[O-])cc2)cc1
absorption maximum (in ClCCl): 426 nm

Compound: Cc1cc(C)c(B(c2cc(-c3ccccc3)sc2-c2sc(-c3ccccc3)cc2P(=O)(c2ccccc2)c2ccccc2)c2c(C)cc(C)cc2C)c(C)c1
absorption maximum (in CO): 392 nm

Compound: Cc1cccc(C)c1Nc1ccc(/C=C/c2cccnc2)cc1
absorption maximum (in CC#N): 351 nm
absorption maximum (in CCCCCC): 346 nm

Compound: COc1cc(C(=O)O)ccc1O
absorption maximum (in C1CCCCC1): 287.2 nm
absorption maximum (in C1COCCO1): 290 nm
absorption maximum (in CC#N): 290 nm
absorption maximum (in CC(C)(C)O): 291 nm
absorption maximum (in CC(C)CO): 292.4 nm
absorption maximum (in CC(C)O): 291.6 nm
absorption maximum (in CCOC(C)=O): 290.5 nm
absorption maximum (in CO): 293.6 nm
absorption maximum (in O): 285 nm and 283.2 nm

Compound: COC(=O)C(N)Cc1ccc(O[Si]2(Oc3ccc(CC(N)C(=O)OC)cc3)n3c4c5ccccc5c3/N=C3N=C(/N=c5/c6ccccc6/c(n52)=N/C2=NC(=N\4)/c4ccccc42)c2ccccc2\3)cc1 (configuration not stated)
absorption maximum (in CN(C)C=O): 680 nm

Compound: c1ccc(N(c2ccccc2)c2ccc(N(c3ccccc3)c3ccc4ccc5c(N(c6ccccc6)c6ccc(N(c7ccccc7)c7ccccc7)cc6)ccc6ccc3c4c65)cc2)cc1
absorption maximum (in ClCCl): 438 nm

Compound: COC(=O)C(NC(=O)OC(C)(C)C)c1ccc2oc(-c3cc(OC)ccc3OC)nc2c1 (configuration not stated)
absorption maximum (in CC1CCCCC1): 332 nm
absorption maximum (in CC#N): 333 nm
absorption maximum (in CO): 337 nm

Compound: c1cc(-n2c3ccccc3c3ccccc32)c(-c2nc3ccccn3n2)c(-n2c3ccccc3c3ccccc32)c1
absorption maximum (in Cc1ccccc1): 338 nm

Compound: BrC1=CN2C[n+]3cc(Br)cc(Br)c3N=C2C(Br)=C1
absorption maximum (in CS(C)=O): 449 nm

The next lines start with the values.

absorption maximum (in CC#N): 361 nm
absorption maximum (in CCCCOCCCC): 361 nm
absorption maximum (in CO): 357 nm
Compound: Nc1ccc2ccc3cccc4ccc1c2c34

absorption maximum (in C1CCCCC1): 361 nm
absorption maximum (in CC#N): 355 nm
absorption maximum (in CO): 343 nm
absorption maximum (in ClCCl): 362 nm
absorption maximum (in O): 355 nm
Compound: Oc1ccc2ccccc2c1-c1nc(-c2ccccc2)c2ccccn12

absorption maximum (in C1CCCCC1): 283 nm
Compound: COc1ccc(C2=C(c3ccc(OC)cc3)C(C)(C)c3ccccc32)cc1

absorption maximum (in CCO): 600 nm
Compound: Nc1ccc2nc3c4ccccc4c(=[NH2+])cc-3oc2c1

absorption maximum (in O): 429 nm
Compound: N#Cc1c(N2CCCCC2)cc(-c2ccc3c(c2)OCO3)c2c1-c1cccc3cccc-2c13

absorption maximum (in C1CCCCC1): 474 nm
absorption maximum (in CC#N): 508 nm
absorption maximum (in CCO): 511 nm
absorption maximum (in c1ccccc1): 491 nm
Compound: CNc1ccc2c(c1)C(=O)c1ccccc1-2

absorption maximum (in ClC(Cl)Cl): 410 nm
Compound: O=C1CC(c2ccccc2)c2c(c3ccccc3c3nc4ccccc4nc23)O1 (configuration not stated)

absorption maximum (in ClC(Cl)Cl): 397 nm
Compound: N=c1oc2cccc3c4c(-c5ccccc5)oc5cccc(c(c1-c1ccccc1)c23)c54

absorption maximum (in CC#N): 636 nm
Compound: F[B-]1(F)n2c(c(-c3cccs3)c3c2-c2ccccc2CC3)C=C2C(c3cccs3)=C3CCc4ccccc4C3=[N+]21

absorption maximum (in ClC(Cl)Cl): 401 nm
Compound: c1ccc2c([SiH](c3c4ccccc4cc4ccccc34)c3c4ccccc4cc4ccccc34)c3ccccc3cc2c1

absorption maximum (in CC#N): 398 nm
Compound: CCOC(=O)c1c2c3c(cccc3c3cc4ccccc4cc13)N(C)C2=O

absorption maximum (in C1CCOC1): 425 nm
Compound: COc1cc2oc(=O)c3c4ccc(C=O)cc4c4ccc5cccc6c(c1)c2c3c4c56

absorption maximum (in CO): 305 nm
Compound: COc1ccc(-c2nc(-c3ccccc3)c(-c3ccccc3)[nH]2)cc1

absorption maximum (in ClCCl): 491 nm
Compound: c1cc2c(N3CCCCC3)c3ccc(=[N+]4CCCCC4)cc-3oc2cc1N1CCCCC1

absorption maximum (in ClCCl): 368 nm
Compound: C[Si]1(C)O[Si](C)(C)c2cc3nc4ccccc4c(-c4ccccc4)c3cc2[Si](C)(C)O1

absorption maximum (in CS(C)=O): 432 nm
absorption maximum (in ClC(Cl)Cl): 424 nm
Compound: CCCCCCN(c1ccccc1)c1ccc(/C=C/c2cc(=O)oc3cc(C)ccc23)cc1

absorption maximum (in CC#N): 328 nm
Compound: C=Cc1cc2ccc(OC(=O)c3ccccc3)cc2oc1=O

absorption maximum (in CC#N): 474 nm
Compound: Oc1ccc2ccccc2c1/C=N/c1cc2ccccc2cc1/N=C/c1c(O)ccc2ccccc12

absorption maximum (in CC#N): 357 nm
Compound: O=C(O)c1ccccc1-c1nc(-c2ccccc2)c2ccccn12

absorption maximum (in C1CCOC1): 381 nm
absorption maximum (in CC#N): 381 nm
absorption maximum (in CCCCCCC): 373 nm
absorption maximum (in CS(C)=O): 393 nm
Compound: C(=C\c1ccncn1)/c1ccc(-c2ccc(N(c3ccccc3)c3ccccc3)cc2)cc1

absorption maximum (in ClCCl): 411 nm
Compound: N#Cc1ccccc1N1c2sc3ccccc3c2Sc2c1sc1ccccc21

absorption maximum (in ClCCl): 352 nm
Compound: CCCCn1c2ccc(C#N)cc2c2cc(C#N)cc(-c3ccc(N(c4ccccc4)c4ccccc4)cc3)c21

absorption maximum (in CC#N): 716 nm
absorption maximum (in CCO): 708 nm
absorption maximum (in CO): 710 nm
absorption maximum (in ClC(Cl)Cl): 722 nm
Compound: CCNc1cc2c(cc1C)C(c1ccccc1C(=O)O)=C1CCCC(/C=C/C3=[N+](C)c4ccc5ccccc5c4C3(C)C)=C1O2

absorption maximum (in C1CCOC1): 428 nm
absorption maximum (in CC#N): 445 nm
absorption maximum (in CCO): 433 nm
absorption maximum (in CS(C)=O): 449 nm
Compound: CCOC(=O)c1ccccc1-c1c2ccc(=O)cc-2oc2cc(OC(=O)[C@H](CO[Si](C)(C)C(C)(C)C)NC(=O)OC(C)(C)C)ccc12

absorption maximum (in ClC(Cl)Cl): 485 nm
Compound: N#Cc1nc(N(Cc2ccc(Br)cc2)Cc2ccc(Br)cc2)c(C#N)nc1N(Cc1ccc(Br)cc1)Cc1ccc(Br)cc1

absorption maximum (in CS(C)=O): 344 nm
Compound: Fc1ccccc1-c1nc2sc3ccccc3c2s1

absorption maximum (in ClCCl): 310 nm
Compound: COC(=O)C1=C(C(=O)OC)C2(c3ccccc3-c3ccccc32)[C@@H](c2ccc([N+](=O)[O-])cc2)C=C2c3cc(OC)c(OC)cc3CCN21
